# Test results from patent US9199984B2, “Inhibition of enzymes” (CHIESI FARMACEUTICI S.p.A., priority 2012, dated 2015).
# Counter-ions that a name gives are not always drawn.
# Biological target: T1, human neutrophil elastase (HNE) (Homo sapiens, UniProt P08246)
# T1 construct: purchased Sigma E8140
# T1 sequence (P08246 30-247 limits assumed): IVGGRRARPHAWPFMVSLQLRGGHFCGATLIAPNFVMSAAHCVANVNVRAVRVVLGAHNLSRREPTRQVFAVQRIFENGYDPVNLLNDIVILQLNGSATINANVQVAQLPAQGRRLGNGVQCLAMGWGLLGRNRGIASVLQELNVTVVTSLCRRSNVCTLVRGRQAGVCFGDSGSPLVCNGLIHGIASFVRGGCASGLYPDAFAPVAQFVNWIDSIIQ
# Assay: HNE enzyme activity assay
# Assay type: biochemical
# Conditions: human leukocyte elastase, substrate MeOSuc-Ala-Ala-Pro-Val-AMC 100 μM, 25° C. for 30 minutes, fluorescence; read-out: HNE inhibition
# Method: Compounds of the present invention were tested for potency in a human neutrophil elastase (HNE) enzyme activity assay.
# Assays were performed in 96-well plates in a total assay volume of 100 μl. The final concentration of elastase enzyme (human leukocyte elastase, Sigma E8140) was 0.0036 units/well […]. The peptide substrate (MeOSuc-Ala-Ala-Pro-Val-AMC, Calbiochem #324740) was used at a final concentration of 100 μM. The final concentration of DMSO was 1% in the assay buffer (0.05M Tris.HCl, 0.1M NaCl, 0.1M CaCl2, 0.0005% brij-35, pH 7.5). The enzymatic reaction was started by addition of the enzyme and incubated at 25° C. for 30 minutes. After incubation, the reaction was stopped by addition of soybean trypsin inhibitor (Sigma T9003) at a final concentration of 50 μg/well. Fluorescence was measured using a Molecular Devices fluorescence plate reader using 380 nm excitation and 460 nm emission wavelengths.
# A dose response to each compound was performed and the effect of compound in each experiment was expressed as a percentage inhibition of the control enzyme fluorescence. Dose response curves were plotted and compound potency (IC50) was determined. Compounds were tested in at least two separate experiments.
row,SMILES,IC50
1,"CC(=O)Nc1nc2c(-c3cccc(C(F)(F)F)c3)c(C)c(-c3ncnn3-c3ccc(C#N)cc3)cn2n1 [Example 39, N-[6-[2-(4-Cyano-phenyl)-2H-[1,2,4]triazol-3-yl]-7-methyl-8-(3-trifluoromethyl-phenyl)-[1,2,4]triazolo[1,5-a]pyridin-2-yl]-acetamide]",< 20 nM
2,"Cc1c(-c2ccnn2-c2ccc(C#N)cc2)cn2nc(NC(=O)CN(C)C)nc2c1-c1cccc(C(F)(F)F)c1 [Example 14, N-[6-[2-(4-Cyano-phenyl)-2H-pyrazol-3-yl]-7-methyl-8-(3-trifluoromethyl-phenyl)-[1,2,4]triazolo[1,5-a]pyridin-2-yl]-2-dimethylamino-acetamide]",< 20 nM
3,"Cc1c(-c2ccnn2-c2ccc(C#N)cc2)cn2c(=O)n(CC(=O)N(C)C)nc2c1-c1cccc(C(F)(F)F)c1 [Example 11, 2-[6-[2-(4-Cyano-phenyl)-2H-pyrazol-3-yl]-7-methyl-3-oxo-8-(3-trifluoromethyl-phenyl)-[1,2,4]triazolo[4,3-a]pyridin-2-yl]-N,N-dimethyl-acetamide]",> 500 nM
4,"Cc1c(-c2ccnn2-c2ccc(C#N)cc2)cn2nc(NC(=O)CCCN(C)C)nc2c1-c1cccc(C(F)(F)F)c1 [Example 16, N-[6-[2-(4-Cyano-phenyl)-2H-pyrazol-3-yl]-7-methyl-8-(3-trifluoromethyl-phenyl)-[1,2,4]triazolo[1,5-a]pyridin-2-yl]-4-dimethylamino-butyramide]",< 20 nM
5,Cc1c(-c2ccnn2-c2ccc(C#N)cc2)cn2cc(NC(=O)C(F)(F)F)nc2c1-c1cccc(C(F)(F)F)c1 [Example 2],100 to 500 nM
6,"CC(=O)N1CCC(NC(=O)Nc2nc3c(-c4cccc(C(F)(F)F)c4)c(C)c(-c4ccnn4-c4ccc(C#N)cc4)cn3n2)CC1 [Example 57, 1-(1-Acetyl-piperidin-4-yl)-3-[6-[2-(4-cyano-phenyl)-2H-pyrazol-3-yl]-7-methyl-8-(3-trifluoromethyl-phenyl)-[1,2,4]triazolo[1,5-a]pyridin-2-yl]-urea]",< 20 nM
7,"Cc1c(-c2ccnn2-c2ccc(C#N)cc2)cn2nc(NC(=O)NC3CCN(S(C)(=O)=O)CC3)nc2c1-c1cccc(C(F)(F)F)c1 [Example 58, 1-[6-[2-(4-Cyano-phenyl)-2H-pyrazol-3-yl]-7-methyl-8-(3-trifluoromethyl-phenyl)-[1,2,4]triazolo[1,5-a]pyridin-2-yl]-3-(1-methanesulfonyl-piperidin-4-yl)-urea]",< 20 nM
8,"Cc1c(-c2ccnn2-c2ccc(C#N)cc2)cn2nc(Nc3ccc(S(C)(=O)=O)cc3)nc2c1-c1cccc(C(F)(F)F)c1 [Example 7, 4-{5-[2-(4-Methanesulfonyl-phenylamino)-7-methyl-8-(3-trifluoromethyl-phenyl)-[1,2,4]triazolo[1,5-a]pyridin-6-yl]-pyrazol-1-yl}-benzonitrile]",< 20 nM
9,"CC(=O)Nc1nc2c(-c3cccc(C(F)(F)F)c3)c(C)c(-c3ccnn3-c3ccc(C#N)cc3F)cn2n1 [Example 41, N-[6-[2-(4-Cyano-2-fluoro-phenyl)-2H-pyrazol-3-yl]-7-methyl-8-(3-trifluoromethyl-phenyl)-[1,2,4]triazolo[1,5-a]pyridin-2-yl]-acetamide]",< 20 nM
10,"Cc1c(-c2ccnn2-c2ccc(C#N)cc2)cn2nc(NC(=O)OCCC[N+](C)(C)C)nc2c1-c1cccc(C(F)(F)F)c1 [Example 37, {3-[6-[2-(4-Cyano-phenyl)-2H-pyrazol-3-yl]-7-methyl-8-(3-trifluoromethyl-phenyl)-[1,2,4]triazolo[1,5-a]pyridin-2-ylcarbamoyloxy]-propyl}-trimethyl-ammonium formate]",< 20 nM
11,"Cc1c(-c2ccnn2-c2ccc(C#N)cc2)cn2nc(NCCC[N+](C)(C)C)nc2c1-c1cccc(C(F)(F)F)c1 [Example 32, {3-[6-[2-(4-Cyano-phenyl)-2H-pyrazol-3-yl]-7-methyl-8-(3-trifluoromethyl-phenyl)-[1,2,4]triazolo[1,5-a]pyridin-2-ylamino]-propyl}-trimethyl-ammonium benzenesulfonate]",< 20 nM
12,"Cc1c(-c2nc(N)nn2-c2ccc(C#N)cc2)cn2nc(N)nc2c1-c1cccc(C(F)(F)F)c1 [Example 61, 4-{3-Amino-5-[2-amino-7-methyl-8-(3-trifluoromethyl-phenyl)-[1,2,4]triazolo[1,5-a]pyridin-6-yl]-[1,2,4]triazol-1-yl}-benzonitrile]",< 20 nM
13,"Cc1c(-c2ccnn2-c2ccc(C#N)cc2)cn2ncnc2c1-c1cccc(C(F)(F)F)c1 [Example 3, 4-{5-[7-Methyl-8-(3-trifluoromethyl-phenyl)-[1,2,4]triazolo[1,5-a]pyridin-6-yl]-pyrazol-1-yl}-benzonitrile]",< 20 nM
14,"CC(=O)Nc1nc2c(-c3cccc(C(F)(F)F)c3)c(C)c(-c3c(C)cnn3-c3ccc(C#N)cc3)cn2n1 [Example 42, N-[6-[2-(4-Cyano-phenyl)-4-methyl-2H-pyrazol-3-yl]-7-methyl-8-(3-trifluoromethyl-phenyl)-[1,2,4]triazolo[1,5-a]pyridin-2-yl]-acetamide]",< 20 nM
15,"Cc1c(-c2ccnn2-c2ccc(C#N)cc2)cn2nc(NCCO)nc2c1-c1cccc(C(F)(F)F)c1 [Example 48, 4-{5-[2-(2-Hydroxy-ethylamino)-7-methyl-8-(3-trifluoromethyl-phenyl)-[1,2,4]triazolo[1,5-a]pyridin-6-yl]-pyrazol-1-yl}-benzonitrile]",< 20 nM
16,"Cc1c(-c2ccnn2-c2ccc(C#N)cc2)cn2nc(NCCCS(C)(=O)=O)nc2c1-c1cccc(C(F)(F)F)c1 [Example 47, 4-{5-[2-(3-Methanesulfonyl-propylamino)-7-methyl-8-(3-trifluoromethyl-phenyl)-[1,2,4]triazolo[1,5-a]pyridin-6-yl]-pyrazol-1-yl}-benzonitrile]",< 20 nM
17,"CC(=O)Nc1nc2c(-c3cccc(C(F)(F)F)c3)c(C)c(-c3ccnn3-c3ccc(C#N)cc3)cn2n1 [Example 26, N-[6-[2-(4-Cyano-phenyl)-2H-pyrazol-3-yl]-7-methyl-8-(3-trifluoromethyl-phenyl)-[1,2,4]triazolo[1,5-a]pyridin-2-yl]-acetamide]",< 20 nM
18,"Cc1nc2c(-c3cccc(C(F)(F)F)c3)c(C)c(-c3ccnn3-c3ccc(C#N)cc3)cn2n1 [Example 4, 4-{5-[2,7-Dimethyl-8-(3-trifluoromethyl-phenyl)-[1,2,4]triazolo[1,5-a]pyridin-6-yl]-pyrazol-1-yl}-benzonitrile]",> 500 nM
19,"Cc1c(-c2ccnn2-c2ccc(C#N)cc2S(C)(=O)=O)cn2nc(N)nc2c1-c1cccc(C(F)(F)F)c1 [Example 40, 4-{5-[2-Amino-7-methyl-8-(3-trifluoromethyl-phenyl)-[1,2,4]triazolo[1,5-a]pyridin-6-yl]pyrazol-1-yl}-3-methanesulfonyl-benzonitrile]",< 20 nM
20,"Cc1c(-c2ccnn2-c2ccc(C#N)cc2)cn2nc(NC(=O)CCS(C)(=O)=O)nc2c1-c1cccc(C(F)(F)F)c1 [Example 46, N-[6-[2-(4-Cyano-phenyl)-2H-pyrazol-3-yl]-7-methyl-8-(3-trifluoromethyl-phenyl)-[1,2,4]triazolo[1,5-a]pyridin-2-yl]-3-methanesulfonyl-propionamide]",< 20 nM
21,"Cc1c(-c2ccnn2-c2ccc(C#N)cc2)cn2nc(NC(=O)CN3CCN(C)CC3)nc2c1-c1cccc(C(F)(F)F)c1 [Example 18, N-[6-[2-(4-Cyano-phenyl)-2H-pyrazol-3-yl]-7-methyl-8-(3-trifluoromethyl-phenyl)-[1,2,4]triazolo[1,5-a]pyridin-2-yl]-2-(4-methyl-piperazin-1-yl)-acetamide]",< 20 nM
22,"Cc1c(-c2ccnn2-c2ccc(C#N)cc2)cn2nc(NCC[N+](C)(C)C)nc2c1-c1cccc(C(F)(F)F)c1 [Example 33, {3-[6-[2-(4-Cyano-phenyl)-2H-pyrazol-3-yl]-7-methyl-8-(3-trifluoromethyl-phenyl)-[1,2,4]triazolo[1,5-a]pyridin-2-ylamino]-ethyl}-trimethyl-ammonium benzenesulfonate]",< 20 nM
23,"Cc1c(-c2ccnn2-c2ccc(C#N)cc2)cn2nc(NC(=O)CN3CCOCC3)nc2c1-c1cccc(C(F)(F)F)c1 [Example 20, N-[6-[2-(4-Cyano-phenyl)-2H-pyrazol-3-yl]-7-methyl-8-(3-trifluoromethyl-phenyl)-[1,2,4]triazolo[1,5-a]pyridin-2-yl]-2-morpholin-4-yl-acetamide]",< 20 nM
24,"Cc1c(-c2ccnn2-c2ccc(C#N)cc2)cn2nc(NC(=O)CCC[N+](C)(C)C)nc2c1-c1cccc(C(F)(F)F)c1 [Example 17, {3-[6-[2-(4-Cyano-phenyl)-2H-pyrazol-3-yl]-7-methyl-8-(3-trifluoromethyl-phenyl)-[1,2,4]triazolo[1,5-a]pyridin-2-ylcarbamoyl]-propyl}-trimethyl-ammonium bromide]",< 20 nM
25,"Cc1c(-c2ccnn2-c2ccc(C#N)cc2)cn2nc(NC(=O)C[N+](C)(C)C)nc2c1-c1cccc(C(F)(F)F)c1 [Example 15, {[6-[2-(4-Cyano-phenyl)-2H-pyrazol-3-yl]-7-methyl-8-(3-trifluoromethyl-phenyl)-[1,2,4]triazolo[1,5-a]pyridin-2-ylcarbamoyl]-methyl}-trimethyl-ammonium bromide]",20 to 100 nM
